Assay [1] has as its system ribosome (eukaryotic peptidyl transferase / translocation) in reticulocyte lysate translation extract. As to the kind of experiment: RNA-peptide fusion formation (35S Met template labeling) with the long myc template in reticulocyte lysate translation extract, effect of inhibitors. It counts as biochemical, rabbit. The note with it: long myc template (LP154), inhibitor concentration not given, 60 min. The text has this:
To confirm that the template labeling by ^35 S Met was a consequence of translation, and more specifically resulted from the peptidyl transferase activity of the ribosome, the effect of various inhibitors on the labeling reaction was examined. The specific inhibitors of eukaryotic peptidyl transferase, anisomycin, gougerotin, and sparsomycin (Vazquez, Inhibitors of Protein Biosynthesis (Springer-Verlag, N.Y.), pp. 312 (1979)), as well as the translocation inhibitors cycloheximide and emetine (Vazquez, Inhibitors of Protein Biosynthesis (Springer-Verlag, N.Y.), pp. 312 (1979)) all decreased RNA-peptide fusion formation by ~95% using the long myc template and a reticulocyte lysate translation extract.
Reticulocyte Translation Reactions. Translation reactions were performed either with purchased kits (Novagen, Madison, Wis.) or using extract prepared according to published protocols (Jackson and Hunt, Meth. Enzymol. 96:50 (1983)). Reticulocyte-rich blood was obtained from Pel-Freez Biologicals (Rogers, […].). In both cases, the reaction conditions were those recommended for use with Red Nova Lysate (Novagen). Reactions consisted of 100 mM KCl, 0.5 mM MgOAc, 2 mM DTT, 20 mM HEPES pH 7.6, 8 mM creatine phosphate, 25 µM in each amino acid (with the exception of methionine if ^35 S Met was used), and 40% v/v of lysate. Incubation was at 30° C. for 1 hour. Template concentrations depended on the experiment but generally ranged from 50 nM to 1 μM with the exception of 43-P (FIG. 6H) which was 4 μM.

The next assay deals with ribosome A site. The note with it: binding the A site, accepting the growing peptide chain, and falling off the ribosome; cited from earlier work.

Each structure is given as a SMILES string.

Take `CSC[S@+]([O-])C[C@H](CO)NC(=O)/C=C/c1c(C)[nH]c(=O)[nH]c1=O` [sparsomycin]: the “decrease of RNA-peptide fusion formation” value in assay [1] is ~ 95%. On the same count and under the same terms, with `C[C@@H]1C[C@@H]([C@H](O)CC2CC(=O)NC(=O)C2)C(=O)[C@@H](C)C1` [cycloheximide] the figure was ~ 95%. Same read-out and setting: with `CC[C@H]1CN2CCc3cc(OC)c(OC)cc3[C@@H]2C[C@@H]1C[C@H]1NCCc2cc(OC)c(OC)cc21` [emetine] the figure was ~ 95%. As to `COc1ccc(C[C@H]2NC[C@H](O)[C@H]2OC(C)=O)cc1` [anisomycin], the “decrease of RNA-peptide fusion formation” value in assay [1] is given as ~ 95%.

Consider `CNCC(=O)NC(CO)C(=O)NC1C(C(N)=O)OC(n2ccc(N)nc2=O)C(O)C1O` (stereo not drawn) [gougerotin], for which the “decrease of RNA-peptide fusion formation” value in assay [1] is ~ 95%. The Kd is a measure of binding affinity in units of concentration. As to `COc1ccc(C[C@H](N)C(=O)N[C@H]2[C@@H](O)[C@H](n3cnc4c(N(C)C)ncnc43)O[C@@H]2CO)cc1` [puromycin], the Kd at ribosome A site is 100 µM.
